From article PMC9969396, “Development of Human Carbonic Anhydrase II Heterobifunctional Degraders” (Journal of Medicinal Chemistry, 2023)

Biological target: T1, hCAII (Homo sapiens, UniProt P00918+Q96SW2)
T1 construct: HEK293 cells, a line known to abundantly express hCAII; endogenous in cells; host or cells: HEK293
Assay: single-point hCAII degradation screen in HEK293 cells, western blot
Assay type: cell-based
Conditions: 5 μM, 24 h; for activity in single-point screen (hCAII degradation): vs DMSO vehicle
Procedure: Following the confirmation of candidate hCAII’s in vitro activity, candidate degraders 1–10 were evaluated for their degradation of hCAII using HEK293 cells, a line known to abundantly express hCAII.[48] To obtain a preliminary evaluation of the activity of these compounds, an initial single-point screen was performed with HEK293 cells dosed with individual degrader candidates at a final concentration of 5 μM for 24 h prior to cell lysis. The relative abundance of hCAII in whole cell lysates was then evaluated via western blot analysis (see the Experimental Section for details).
Figure 2 Single-point activity screen of degrader candidates 1–10. Western blot analysis of HEK293 cells treated with degrader candidate (5 μM final concentration) or vehicle (DMSO) for 24 h. […] Degraders 4 and 5 were identified as active from this screen. Full images of the western blots are provided within the Supporting Information (Figure S1).
HEK293 cells were cultured in Dulbecco’s modified Eagle’s medium (DMEM, Gibco, 4.5 g/L glucose) supplemented with 10% fetal bovine serum (FBS), 1% sodium pyruvate, and 1% penicillin/streptomycin. Cells were grown at 37 °C in a humidified 5% CO2 atmosphere and regularly tested for mycoplasma.
After reaching 90% confluency, HEK293 cells were trypsinized, counted, and plated with 2 mL media at 2 × 10^6 cells per well on a tissue-culture-treated, 6-well plate. At the appropriate number of hours before reaching ∼90% confluency, cells were treated with DMSO solutions of the appropriate compounds (final concentration 0.5% DMSO per well). Upon reaching 90% confluency, typically 72 h, culture media were removed and the cells were washed with cold Dulbecco’s phosphate-buffered saline (DPBS). Lysis buffer, composed of cell lysis buffer (Cell Signaling Technology, 9803), protease inhibitor cocktail (Cell Signaling Technology, 5872), and 1 mM phenylmethylsulfonylfluoride, was added to each well, and the plates were rocked at 4 °C for 20 min. Cells were then scraped from the bottom of the plates, and the supernatant was collected after spinning down at 14,000g at 4 °C for 10 min and frozen at −80 °C. Lysates were thawed on ice, and the total protein concentration was measured using a Pierce bicinchoninic acid protein assay (Thermo Fisher Scientific, 23225). […] The immunoblot was then analyzed using the ImageJ software as an 8-bit image. The brightness and contrast of the image were adjusted, and the integrated density was calculated for each protein band using the gel lane analysis tool. Relative hCAII expression was calculated by normalizing the hCAII/β-actin ratio in compound-treated wells to the hCAII/β-actin ratio in vehicle (DMSO)-treated wells and indicated as “hCAII Abundance (% DMSO)”.

Compound | protein degradation quantified by western blot | activity in single-point screen (hCAII degradation)
NS(=O)(=O)c1ccc(C(=O)NCCCOCCOCCOCCCNc2cccc3c2C(=O)N(C2CCC(=O)NC2=O)C3=O)cc1 (stereo not shown) [Compound 5, N-(3-(2-(2-(3-((2-(2,6-Dioxopiperidin-3-yl)-1,3-dioxoisoindolin-4-yl)amino)propoxy)ethoxy)ethoxy)propyl)-4-sulfamoylbenzamide] | 85% | active
NS(=O)(=O)c1ccc(C(=O)NCCCOCCCCOCCCNc2cccc3c2C(=O)N(C2CCC(=O)NC2=O)C3=O)cc1 (stereo not shown) [Compound 4, N-(3-(4-(3-((2-(2,6-Dioxopiperidin-3-yl)-1,3-dioxoisoindolin-4-yl)amino)propoxy)butoxy)propyl)-4-sulfamoylbenzamide] | 64% | active
